The test system of assay [1] is human erytroblast leukemia HEL-92.1.7 cells. The assay can be described thus: Growth inhibition test (MTS) on HEL-92.1.7 cells. It is filed as cell-based. The settings on record: 72 hours, read-out: HEL92 ED50. Put shortly: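 HEL-92.1.7 cells in RPMI 1640 with 10% FCS, exposed next day to compound at 0.1–10 micromol/L for 72 h at 37° C. Viability by MTS absorbance at 490 nm after 2 h, as % of untreated cells.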

Assay [2] has as its system human breast adenocarcinoma MCF7 cells. The assay can be described thus: Growth inhibition test (MTS) on MCF7 cells. The settings on record: Homo sapiens, MCF7, 72 hours, read-out: MCF-7 ED50. The assay is classed as cell-based. Put shortly:
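MCF7 cells seeded in DMEM with 10% FCS, dosed next day at 0.1–10 micromol/L (diluted from 10 mmol/L DMSO stock) and cultured 72 h at 37° C, 5% CO2. MTS added for 2 h, absorbance read at 490 nm; % viability calculated relative to untreated cells as 100%.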

The target in a further assay is FGFR2(N549H)(h) (Homo sapiens (Human), UniProt P21802, N549H). As to the kind of experiment: KinaseProfiler kinase panel. The assay is classed as biochemical.
A further assay has as its target DYRK2(h) (Homo sapiens (Human), UniProt Q92630). As to the kind of experiment: KinaseProfiler kinase panel. The assay is classed as biochemical.
Assay [3] relates to tumors derived from MV4-11 cells xenografted in nude mice. As to the kind of experiment: In vivo anticancer activity, MV4-11 xenograft. The settings on record: QD, PO. The method, then:
The anticancer activity of compounds 20, 359 and 416 was assessed on tumors derived from MV4-11 cells xenografted in nude mice. Mice were inoculated with 5*10^6 cells and the tumor volume was measured until it reached 100 mm^3. Throughout the whole study tumor volume has been measured (FIG. 2) and tumor growth inhibition (TGI) was calculated.

The subject of assay [4] is human myelomonocytic, biphenotypic leukemia MV4-11 cells. The assay can be described thus: Growth inhibition test (MTS) on MV4-11 cells. It is filed as cell-based. The settings on record: Homo sapiens, MV4-11, 72 hours, read-out: MV-4-11 ED50. In short, it runs like this: MV4-

The record followed here is US8604217B2, “Compound, a process for its preparation, a pharmaceutical composition, use of a compound, a method for modulating or regulating serine/threonine kinases and a serine/threonine kinases modulating agent” (Selvita S.A., priority 2009, dated 2013).

Chain of FGFR2(N549H)(h) (P21802 22-821 N549H): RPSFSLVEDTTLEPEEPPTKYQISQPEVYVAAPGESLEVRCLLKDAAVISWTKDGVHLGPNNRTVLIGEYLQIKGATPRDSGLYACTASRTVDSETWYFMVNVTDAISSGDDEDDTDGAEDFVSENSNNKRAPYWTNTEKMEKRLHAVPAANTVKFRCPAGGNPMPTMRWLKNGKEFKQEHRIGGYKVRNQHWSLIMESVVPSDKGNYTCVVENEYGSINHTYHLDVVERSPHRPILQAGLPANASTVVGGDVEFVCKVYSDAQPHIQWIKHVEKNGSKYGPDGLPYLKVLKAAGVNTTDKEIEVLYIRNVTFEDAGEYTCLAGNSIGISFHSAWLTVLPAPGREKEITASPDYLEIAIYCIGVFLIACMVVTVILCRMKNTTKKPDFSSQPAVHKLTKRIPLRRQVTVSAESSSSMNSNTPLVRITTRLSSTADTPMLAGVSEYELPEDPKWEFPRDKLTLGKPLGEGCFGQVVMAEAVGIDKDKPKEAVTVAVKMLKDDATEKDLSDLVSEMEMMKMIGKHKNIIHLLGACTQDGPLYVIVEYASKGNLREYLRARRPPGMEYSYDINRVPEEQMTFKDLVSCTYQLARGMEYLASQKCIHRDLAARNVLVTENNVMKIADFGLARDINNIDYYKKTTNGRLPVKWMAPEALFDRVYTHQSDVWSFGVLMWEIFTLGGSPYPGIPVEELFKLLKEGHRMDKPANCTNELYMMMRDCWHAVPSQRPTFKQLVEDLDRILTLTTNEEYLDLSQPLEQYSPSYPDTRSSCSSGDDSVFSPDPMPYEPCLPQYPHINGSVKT
Chain of DYRK2(h) (Q92630 whole entry): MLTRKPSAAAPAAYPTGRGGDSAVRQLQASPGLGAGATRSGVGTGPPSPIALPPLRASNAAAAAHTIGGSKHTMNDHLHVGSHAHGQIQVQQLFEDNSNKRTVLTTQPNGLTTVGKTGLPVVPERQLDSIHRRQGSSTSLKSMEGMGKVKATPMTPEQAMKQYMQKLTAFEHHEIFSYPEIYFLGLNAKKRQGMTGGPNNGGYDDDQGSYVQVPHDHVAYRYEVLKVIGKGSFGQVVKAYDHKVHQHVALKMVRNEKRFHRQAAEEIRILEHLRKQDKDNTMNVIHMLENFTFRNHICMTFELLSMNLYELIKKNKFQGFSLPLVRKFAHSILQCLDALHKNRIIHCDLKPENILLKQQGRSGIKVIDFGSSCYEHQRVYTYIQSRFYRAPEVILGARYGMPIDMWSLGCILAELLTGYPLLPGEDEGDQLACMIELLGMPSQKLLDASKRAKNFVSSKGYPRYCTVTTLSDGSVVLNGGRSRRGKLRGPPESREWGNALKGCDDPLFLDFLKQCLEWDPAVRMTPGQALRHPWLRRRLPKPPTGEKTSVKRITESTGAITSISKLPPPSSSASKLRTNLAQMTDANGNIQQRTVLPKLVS

In the case of `CCn1c(N2CCNCC2)nc2c(Br)c(Br)c(Br)c(Br)c21` [Compound 416, 4,5,6,7-tetrabromo-1-ethyl-2-(piperazin-1-yl)-1H-benzo[d]imidazole], the results for the IC50 in assay [1], in assay [2] and in assay [4] were 2720 nM, 1260 nM and 550 nM, respectively. Also, the remaining activity at 1 µM at FGFR2(N549H)(h) amounted to 101%; at DYRK2(h), 45%. Further, the “TGI (%)” value in assay [3] (150 mg/kg, 21 days, MV4-11 xenograft in nude mice) is on record as −102.8%. The “tumor growth inhibition (in words)” value in assay [3] (after 21 days of treatment) is recorded as “most pronounced tumor growth inhibition”.
